Measured values from ChEMBL document CHEMBL6127018, “Molecular design and evaluation of aza-polycyclic carbamoyl pyridones as HIV-1 integrase strand transfer inhibitors” (Bioorg Med Chem Lett, 2024).

Key:
[1] = Selectivity ratio of PAEC50 for antiviral activity against HIV-1 infected in human MT4 cells in presence of human serum albumin to EC50 for antiviral activity against HIV-1 infected in human MT4 cells; type: functional, Human immunodeficiency virus 1
[2] = target: Human immunodeficiency virus type 1 integrase (Human immunodeficiency virus 1, UniProt Q7ZJM1); experiment: Inhibition of recombinant HIV-1 integrase by microtiter plate integration assay
[3] = Cytotoxicity against human MT4 cells; type: toxicity, cell-based
[4] = system: Human immunodeficiency virus 1; experiment: Antiviral activity against HIV-1 harboring raltegravir resistant Q148H mutant infected in human HeLa-CD4 cells assessed as fold change; type: functional
[5] = system: Human immunodeficiency virus 1; experiment: Antiviral activity against HIV-1 infected in human MT4 cells; type: functional, organism-based; details: Human immunodeficiency virus 1, MT4
[6] = Cmax in cynomolgus monkey at 5 mg/kg, po or 1 mg/kg, iv; type: ADME, organism-based, Macaca fascicularis; details: in vivo
[7] = Half-life in cynomolgus monkey at 1 mg/kg, iv; type: ADME, organism-based, Macaca fascicularis; details: in vivo
[8] = Cmax in rat at 5 mg/kg, po or 1 mg/kg, iv; type: ADME, organism-based; details: in vivo
[9] = Oral bioavailability in cynomolgus monkey at 5 mg/kg; type: ADME, organism-based, Macaca fascicularis; details: in vivo
[10] = Free fraction in cynomolgus monkey serum at 5 mg/kg, po or 1 mg/kg, iv; type: ADME, organism-based, Macaca fascicularis
[11] = Free fraction in rat serum at 5 mg/kg, po or 1 mg/kg, iv; type: ADME, organism-based
[12] = Oral bioavailability in rat at 5 mg/kg; type: ADME, organism-based; details: in vivo
[13] = Half-life in rat at 1 mg/kg, iv; type: ADME, organism-based; details: in vivo

Chain of Human immunodeficiency virus type 1 integrase (Q7ZJM1 whole entry): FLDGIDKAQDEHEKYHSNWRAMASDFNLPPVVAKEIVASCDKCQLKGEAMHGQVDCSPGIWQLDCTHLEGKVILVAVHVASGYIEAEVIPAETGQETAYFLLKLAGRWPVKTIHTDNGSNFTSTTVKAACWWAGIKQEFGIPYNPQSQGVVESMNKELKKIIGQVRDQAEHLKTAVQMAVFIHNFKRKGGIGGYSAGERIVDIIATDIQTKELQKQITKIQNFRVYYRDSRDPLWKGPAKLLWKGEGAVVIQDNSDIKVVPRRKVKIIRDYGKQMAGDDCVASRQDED

SMILES | Selectivity ratio [1] | IC50 [2] [nM] | CC50 [3] [nM] | fold change (FC) [4] | EC50 [5] [nM] | Cmax [6] [ng/mL] | half-life [7] [h] | Cmax [8] [ng/mL] | bioavailability [9] [%] | fraction unbound [10] | fraction unbound [11] | bioavailability [12] [%] | half-life [13] [h]
COCCN1CN(Cc2ccccc2)n2cc(C(=O)NCc3ccc(F)cc3F)c(=O)c(O)c2C1=O | 17 | 3.5 | 5000 | 1.1 | 1.9 | – | – | – | – | – | – | – | –
COCCCN1CN(C)n2cc(C(=O)NCc3ccc(F)cc3F)c(=O)c(O)c2C1=O | 11 | 5.6 | 18000 | 0.93 | 1.3 | – | – | – | – | – | – | – | –
CN1CN(CC2CC2)C(=O)c2c(O)c(=O)c(C(=O)NCc3ccc(F)cc3F)cn21 | 360 | 4 | 13000 | 0.85 | 1.3 | – | – | – | – | – | – | – | –
CC(C)N1CN(C)n2cc(C(=O)NCc3ccc(F)cc3F)c(=O)c(O)c2C1=O | 230 | 5.3 | 3900 | 0.64 | 1.3 | – | – | – | – | – | – | – | –
CN1CN(Cc2ccco2)C(=O)c2c(O)c(=O)c(C(=O)NCc3ccc(F)cc3F)cn21 | 89 | 5.7 | > 50000 | 0.77 | 1.5 | – | – | – | – | – | – | – | –
O=C(NCc1ccc(F)cc1F)c1cn2c(c(O)c1=O)C(=O)N1CCCCCN1C2 | 400 | 6.2 | 17000 | – | 3.5 | – | – | – | – | – | – | – | –
CN1Cn2cc(C(=O)NCc3ccc(F)cc3F)c(=O)c(O)c2C(=O)N1CCO | 18 | 4.9 | > 50000 | – | 15 | – | – | – | – | – | – | – | –
CN1NCn2cc(C(=O)NCc3ccc(F)cc3F)c(=O)c(O)c2C1=O | 12 | 4.8 | 34000 | – | 3.9 | – | – | – | – | – | – | – | –
CN1CN(C[C@H]2CCCO2)C(=O)c2c(O)c(=O)c(C(=O)NCc3ccc(F)cc3F)cn21 | 23 | 4.2 | 9800 | 1.5 | 1.4 | – | – | – | – | – | – | – | –
COCCN1C(=O)c2c(O)c(=O)c(C(=O)NCc3ccc(F)cc3F)cn2CN1C | 24 | 4.5 | 18000 | 1.7 | 1.4 | – | – | – | – | – | – | – | –
CN1Cn2cc(C(=O)NCc3ccc(F)cc3F)c(=O)c(O)c2C(=O)N1 | 8.4 | 4.5 | > 50000 | – | 29 | – | – | – | – | – | – | – | –
CN1C(=O)c2c(O)c(=O)c(C(=O)NCc3ccc(F)cc3F)cn2CN1CCO | 3.1 | 4.7 | > 50000 | – | 20 | – | – | – | – | – | – | – | –
COCCN1Cn2cc(C(=O)NCc3ccc(F)cc3F)c(=O)c(O)c2C(=O)N1C | 14 | 4.4 | 15000 | 2.3 | 1.6 | – | – | – | – | – | – | – | –
O=C(NCc1ccc(F)cc1F)c1cn2c(c([O-])c1=O)C(=O)N1CCCN1C2.[Na+] | – | – | – | – | – | 345 | 3.7 | 6390 | 6.4 | 0.0052 | 0.0002 | 13 | 27.5
CC(=O)NCCN1Cn2cc(C(=O)NCc3ccc(F)cc3F)c(=O)c(O)c2C(=O)N1C | 2.8 | 9 | > 50000 | – | 120 | – | – | – | – | – | – | – | –
COCCN1C(=O)c2c([O-])c(=O)c(C(=O)NCc3ccc(F)cc3F)cn2CN1C.[Na+] | – | – | – | – | – | 385 | 3.1 | 9330 | 6.1 | 0.0118 | 0.0014 | 21 | 21.9
O=C(NCc1ccc(F)cc1F)c1cn2c(c(O)c1=O)C(=O)N1CCCN1C2 | 12 | 3.4 | > 50000 | – | 2.2 | – | – | – | – | – | – | – | –
CN1CN(Cc2ccc(F)cc2)C(=O)c2c(O)c(=O)c(C(=O)NCc3ccc(F)cc3F)cn21 | 25 | 4.5 | > 50000 | 0.51 | 1.7 | – | – | – | – | – | – | – | –
O=C(NCc1ccc(F)cc1)c1cn2c(c(O)c1=O)C(=O)N1CCCCN1C2 | 215 | 4.5 | 23000 | – | 1.8 | – | – | – | – | – | – | – | –
CCN1CN(CCOC)C(=O)c2c(O)c(=O)c(C(=O)NCc3ccc(F)cc3F)cn21 | 110 | 4.9 | 8500 | 0.73 | 1.3 | – | – | – | – | – | – | – | –

SMILES | Selectivity ratio [1] | IC50 [2] [nM] | CC50 [3] [nM] | fold change (FC) [4] | EC50 [5] [nM] | Cmax [6] [ng/mL] | half-life [7] [h] | Cmax [8] [ng/mL] | bioavailability [9] [%] | fraction unbound [10] | fraction unbound [11] | bioavailability [12] [%] | half-life [13] [h]
COCCN1CN(C(c2ccccc2)c2ccccc2)n2cc(C(=O)NCc3ccc(F)cc3F)c(=O)c(O)c2C1=O | – | – | – | – | 57000 | – | – | – | – | – | – | – | –
O=C(NCc1ccc(F)cc1)c1cn2c(c(O)c1=O)C(=O)N1CCCN1C2 | 9.1 | 5.2 | 41000 | – | 3.6 | – | – | – | – | – | – | – | –
CN(C)CCN1CN(C)n2cc(C(=O)NCc3ccc(F)cc3F)c(=O)c(O)c2C1=O | 2.2 | 11 | 12000 | 5 | 4.8 | – | – | – | – | – | – | – | –
COCCN1CN(C)n2cc(C(=O)NCc3ccc(F)cc3F)c(=O)c(O)c2C1=O | 18 | 4.8 | 13000 | 0.81 | 0.83 | – | – | – | – | – | – | – | –
COCCN1CN(C)n2cc(C(=O)NCc3ccc(F)cc3F)c(=O)c([O-])c2C1=O.[Na+] | – | – | – | – | – | 1700 | 4.8 | 18000 | 31 | 0.0072 | 0.0011 | 46 | 14.3
COCCN1CN(CCO)n2cc(C(=O)NCc3ccc(F)cc3F)c(=O)c(O)c2C1=O | 13 | 5.4 | 28000 | 0.7 | 9.4 | – | – | – | – | – | – | – | –
COCCN1CN(CC(=O)N(C)C)n2cc(C(=O)NCc3ccc(F)cc3F)c(=O)c(O)c2C1=O | 5 | 5.1 | 38000 | 0.9 | 15 | – | – | – | – | – | – | – | –
CCN1Cn2cc(C(=O)NCc3ccc(F)cc3F)c(=O)c(O)c2C(=O)N1 | 44 | 4.5 | > 50000 | – | 11 | – | – | – | – | – | – | – | –
CN1CN(Cc2cccs2)C(=O)c2c(O)c(=O)c(C(=O)NCc3ccc(F)cc3F)cn21 | 96 | 4.5 | > 50000 | 0.72 | 1.7 | – | – | – | – | – | – | – | –
CCN(CC)CCN1CN(CCOC)C(=O)c2c(O)c(=O)c(C(=O)NCc3ccc(F)cc3F)cn21 | 1.4 | 22 | 11000 | 2.3 | 13 | – | – | – | – | – | – | – | –
COCCN1CN(Cc2cccnc2)n2cc(C(=O)NCc3ccc(F)cc3F)c(=O)c(O)c2C1=O | 3.3 | 6.9 | 8100 | 1.4 | 3.2 | – | – | – | – | – | – | – | –
COCCN1CN(Cc2ccccn2)n2cc(C(=O)NCc3ccc(F)cc3F)c(=O)c(O)c2C1=O | 4.7 | 9.1 | 7000 | 1.2 | 2.4 | – | – | – | – | – | – | – | –
CC(C)N1NCn2cc(C(=O)NCc3ccc(F)cc3F)c(=O)c(O)c2C1=O | 34 | 4.3 | 15000 | – | 1.7 | – | – | – | – | – | – | – | –
CN1CN(C[C@@H]2CCCO2)C(=O)c2c(O)c(=O)c(C(=O)NCc3ccc(F)cc3F)cn21 | 13 | 4.7 | 14000 | 1 | 1.3 | – | – | – | – | – | – | – | –
COCCN1CN(CC(C)C)n2cc(C(=O)NCc3ccc(F)cc3F)c(=O)c(O)c2C1=O | 620 | 6.1 | 13000 | 0.6 | 3.5 | – | – | – | – | – | – | – | –
CN1Cn2cc(C(=O)NCc3ccc(F)cc3F)c(=O)c([O-])c2C(=O)N1C.[Na+] | 52 | 3.7 | > 50000 | – | 2.4 | – | – | – | – | – | – | – | –
CN1CN(C2CC2)C(=O)c2c(O)c(=O)c(C(=O)NCc3ccc(F)cc3F)cn21 | 1000 | 4.7 | 12000 | 1.5 | 2 | – | – | – | – | – | – | – | –
O=C(NCc1ccc(F)cc1F)c1cn2c(c(O)c1=O)C(=O)N1CCOCCN1C2 | 20 | 8.7 | 32000 | – | 4.6 | – | – | – | – | – | – | – | –
C[C@@H]1CCO[C@H]2Cn3cc(C(=O)NCc4ccc(F)cc4F)c(=O)c([O-])c3C(=O)N12.[Na+] [DOLUTEGRAVIR SODIUM] | – | – | – | – | – | 817 | 6 | 10700 | – | 0.0058 | 0.0008 | 33 | 6.2
C[C@@H]1CCO[C@H]2Cn3cc(C(=O)NCc4ccc(F)cc4F)c(=O)c(O)c3C(=O)N12 [DOLUTEGRAVIR] | – | – | 15000 | 0.74 | 2.1 | – | – | – | – | – | – | – | –
